# Source: patent US11168102B1, “Bicyclic heteroaryl compounds and uses thereof” (Revolution Medicines, Inc., priority 2019, dated 2021)
# Test system: cellular pERK in PC-9 cells (EGFR Ex19Del)
# Experiment: Potency assay: pERK (AlphaLISA SureFire Ultra p-ERK1/2) in PC-9 cells
# Assay type: cell-based
# Details: Homo sapiens, PC-9, 1 h, PC-9 cells (EGFR Ex19Del), 1 hour incubation, AlphaLISA SureFire Ultra p-ERK1/2; read-out: SOS1 pERK IC50
row,IC50 [nM],Structure (SMILES)
1,766,C[C@@H](Nc1ncnc2c1cc(C(=O)N1Cc3cccnc3C1)c(=O)n2C)c1cccc(C(F)F)c1F [Example 26-28]
2,256,C[C@@H](Nc1ncnc2c1cc(C(=O)N1CC3(CCOC3)C1)c(=O)n2C)c1cccc(C(F)F)c1F [Example 26-15]
3,102,CO[C@]1(c2cc3c(N[C@H](C)c4cccc(C(F)F)c4F)ncnc3n(C)c2=O)C[C@H](C)N(C(C)=O)C1 [Example 32-49]
4,1310,COC1(c2cc3c(N[C@H](C)c4cccc(C(F)F)c4F)ncnc3n(C)c2=O)C[C@H]2C[C@@H]1CN2C(C)=O (stereo partly drawn) [Example 32-14]
5,14.5,"C[C@@H](Nc1ncnc2c1cc(C1(N)CCOCC1)c(=O)n2C)c1cccc(C(F)F)c1F [Example 31, 6-(4-aminooxan-4-yl)-4-{[(1R)-1-[3-(difluoromethyl)-2-fluorophenyl]ethyl]amino}-8-methyl-7H,8H-pyrido-[2,3-d]pyrimidin-7-one]"
6,124,COC1(c2cc3c(N[C@H](C)c4cccc(C(F)F)c4F)ncnc3n(C)c2=O)CCN(C(C)=O)CC1 [Example 32-1]
7,275,CC1CN(C(=O)c2cc3c(N[C@H](C)c4cccc(C(F)F)c4F)ncnc3n(C)c2=O)C(C)CO1 (stereo partly drawn) [Example 26-23]
8,388,"Cc1nc(N[C@H](C)c2cccc(C(F)F)c2F)c2cc(C(=O)N3CCOCC3)c(=O)n(C)c2n1 [Example 26, 4-{[(1R)-1-[3-(difluoromethyl)-2-fluorophenyl]ethyl]amino}-2,8-dimethyl-6-(morpholine-4-carbonyl)-7H,8H-pyrido[2,3-d]pyrimidin-7-one]"
9,194,C[C@@H](Nc1ncnc2c1cc(C(=O)N1CCCC13CCOCC3)c(=O)n2C)c1cccc(C(F)F)c1F [Example 26-42]
10,393,COC1(c2cc3c(N[C@H](C)c4cccc(C(F)F)c4F)ncnc3n(C)c2=O)CC2(CCN(C(C)=O)C2)C1 (stereo partly drawn) [Example 32-21]
11,585,C[C@@H](Nc1ncnc2c1cc(C(=O)N1CCOCC13CCOC3)c(=O)n2C)c1cccc(C(F)F)c1F (stereo partly drawn) [Example 26-47]
12,115,COC(=O)N1CCC(OC)(c2cc3c(N[C@H](C)c4cccc(C(F)F)c4F)ncnc3n(C)c2=O)CC1 [Example 32-61]
13,747,COCC1COCCN1C(=O)c1cc2c(N[C@H](C)c3cccc(C(F)F)c3F)ncnc2n(C)c1=O (stereo partly drawn) [Example 26-37]
14,77.6,CO[C@]1(c2cc3c(N[C@H](C)c4cccc(C(F)F)c4F)ncnc3n(C)c2=O)C[C@@H](C)N(C(C)=O)C1 [Example 32-47]
15,29.9,CO[C@@]1(c2cc3c(N[C@H](C)c4cccc(C(F)F)c4F)ncnc3n(C)c2=O)CCN(S(C)(=O)=O)C1 [Example 32-17]
16,81.6,COC1(c2cc3c(N[C@H](C)c4cccc(C(F)F)c4F)ncnc3n(C)c2=O)CCNC1 (stereo partly drawn) [Example 32-55]
17,195,C[C@@H](Nc1ncnc2c1cc(C(=O)N1CC[C@@H]3CCO[C@@H]31)c(=O)n2C)c1cccc(C(F)F)c1F [Example 26-17]
18,1440,COC1(c2cc3c(N[C@H](C)c4cccc(C(F)F)c4F)ncnc3n(C)c2=O)C2CC1CN(C(C)=O)C2 (stereo partly drawn) [Example 32-25]
19,92.1,CO[C@@]1(c2cc3c(N[C@H](C)c4cccc(C(F)F)c4F)ncnc3n(C)c2=O)CCN(C(C)=O)[C@H](C)C1 [Example 32-28]

# More lines, now with the values behind:
row,Structure (SMILES),IC50 [nM]
1,"CC(=O)N1CCC(C#N)(c2cc3c(N[C@H](C)c4cccc(C(F)F)c4F)ncnc3n(C)c2=O)CC1 [Example 36, 1-acetyl-4-(4-{[(1R)-1-[3-(difluoromethyl)-2-fluorophenyl]ethyl]amino}-8-methyl-7-oxo-7H,8H-pyrido[2,3-d]pyrimidin-6-yl)piperidine-4-carbonitrile]",28.1
2,C[C@@H](Nc1ncnc2c1cc(C1(C#N)CCS(=O)(=O)CC1)c(=O)n2C)c1cccc(C(F)F)c1F [Example 36-1],11.6
3,COC1(c2cc3c(N[C@H](C)c4cccc(C(F)F)c4F)ncnc3n(C)c2=O)CCP(C)(=O)CC1 (stereo partly drawn) [Example 32-45],249
4,"COC1(c2cc3c(N[C@H](C)c4ccnc(C(F)F)c4F)ncnc3n(C)c2=O)CCN(C(C)=O)CC1 [Example 71, 6-(1-acetyl-4-methoxy-4-piperidyl)-4-[[(1R)-1-[2-(difluoromethyl)-3-fluoro-4-pyridyl]ethyl]amino]-8-methyl-pyrido-[2,3-d]pyrimidin-7-one]",528
5,"CC(=O)N1CCC(c2cc3c(N[C@H](C)c4cccc(C(F)F)c4CF)ncnc3n(C)c2=O)CC1 [Example 39, 6-(1-acetylpiperidin-4-yl)-4-{[(1R)-1-[3-(difluoromethyl)-2-(fluoromethyl)phenyl]ethyl]amino}-8-methyl-7H,8H-pyrido[2,3-d]pyrimidin-7-one]",1560
6,"C[C@@H](Nc1ncnc2c1cc(C1=CCS(=O)(=O)CC1)c(=O)n2C)c1cccc(C(F)(F)C#N)c1 [Example 40, 2-{3-[(1R)-1-{[6-(1,1-dioxo-3,6-dihydro-2H-1λ^6-thiopyran-4-yl)-8-methyl-7-oxo-7H,8H-pyrido[2,3-d]pyrimidin-4-yl]amino}ethyl]phenyl}-2,2-difluoroacetonitrile]",1370
7,"CC(=O)N1CCC(c2cc3c(N[C@H](C)c4cc(C(F)(F)F)cc(N)n4)ncnc3n(C)c2=O)CC1 [Example 44, 6-(1-acetyl-4-piperidyl)-4-[1-[6-amino-4-(trifluoromethyl)-2-pyridyl]ethylamino]-8-methyl-pyrido[2,3-d]pyrimidin-7-one]",179
8,C[C@@H](Nc1ncnc2c1cc(C1CCS(=O)(=O)CC1)c(=O)n2C)c1cccc2c1OCC2(F)F [Example 33-3],34.8
9,COC1(c2cc3c(N[C@H](C)c4cccc(C(F)F)c4F)ncnc3n(C)c2=O)CN(S(C)(=O)=O)C1 [Example 32-10],436
10,C[C@@H](Nc1ncnc2c1cc(C1CN(S(C)(=O)=O)C1)c(=O)n2C)c1cccc(C(F)F)c1F [Example 33-7],521
11,C[C@@H](Nc1ncnc2c1cc(C1(N)CCS(=O)(=O)CC1)c(=O)n2C)c1cccc(C(F)F)c1F [Example 31-1],45.6
12,C[C@@H](Nc1ncnc2c1cc(C1(C#N)CCN(S(C)(=O)=O)C1)c(=O)n2C)c1cccc(C(F)F)c1F (stereo partly drawn) [Example 36-4],91
13,COC1(c2cc3c(C[C@H](C)c4cccc(C(F)F)c4F)ncnc3n(C)c2=O)CC2(C1)CS(=O)(=NC1CC1)C2 (stereo partly drawn) [Example 68-2],136
14,"C[C@@H](Nc1ncnc2c1cc(N1CCOCC1)c(=O)n2C)c1cccc(C(F)(F)CO)c1 [Example 2, (R)-4-((1-(3-(1,1-difluoro-2-hydroxyethyl)phenyl)ethyl)amino)-8-methyl-6-morpholinopyrido[2,3-d]pyrimidin-7(8H)-one]",59.8
15,"Cc1nc(N[C@H](C)c2cc(N)cc(C(F)(F)F)c2)c2cc(C3=CCNCC3)c(=O)n(C)c2n1 [Example 6, 4-[[(1R)-1-[3-amino-5-(trifluoromethyl)phenyl]ethyl]amino]-2,8-dimethyl-6-(1,2,3,6-tetrahydropyridin-4-yl)pyrido[2,3-d]pyrimidin-7-one]",188
16,C[C@@H](Nc1ncnc2c1cc(C1=CCCNC1)c(=O)n2C)c1cccc(C(F)F)c1F [Example 1-4],43.1
17,"CC(=O)N1CCC(c2cc3c(N[C@H](C)c4cccc(C(F)F)c4C(F)F)ncnc3n(C)c2=O)CC1 [Example 38, 6-(1-acetylpiperidin-4-yl)-4-{[(1R)-1-[2,3-bis(difluoromethyl)phenyl]ethyl]amino}-8-methyl-7H,8H-pyrido[2,3-d]pyrimidin-7-one]",137
18,"C[C@@H](Nc1ncnc2c1cc(C1(F)CCS(=O)(=O)CC1)c(=O)n2C)c1cccc(C(F)F)c1F [Example 29, 4-(4-{[(1R)-1-[3-(difluoromethyl)-2-fluorophenyl]ethyl]amino}-8-methyl-7-oxo-7H,8H-pyrido[2,3-d]-pyrimidin-6-yl)-4-fluoro-1λ^6-thiane-1,1-dione]",34.6
19,C[C@@H](Nc1ncnc2c1cc(C1CCC3(CC1)CS(=O)(=O)C3)c(=O)n2C)c1cccc(C(F)F)c1F [Example 33-2],71.6
20,Cc1nc(N[C@H](C)c2cccc(C(F)F)c2F)c2cc(N3CCOCC3)c(=O)n(C)c2n1 [Example 2-1],112
21,C[C@@H](Nc1ncnc2c1cc(C1(C#N)CN(S(C)(=O)=O)C1)c(=O)n2C)c1cccc(C(F)F)c1F [Example 36-7],772
22,C[C@@H](Nc1ncnc2c1cc(C1=CC[P@@](C)(=O)CC1)c(=O)n2C)c1cccc(C(F)F)c1F [Example 1-33],201
23,C[C@@H](Nc1ncnc2c1cc(C1CCS(=O)(=NC(N)=O)CC1)c(=O)n2C)c1cccc(C(F)F)c1F (stereo partly drawn) [Example 33-24],293

# Same assay, conditions: Homo sapiens, PC-9, 1 h, read-out: SOS1 pERK IC50
row,Structure (SMILES),IC50 [nM]
1,C[C@@H](Nc1ncnc2c1cc(C1(C#N)CCN(C3COC3)CC1)c(=O)n2C)c1cccc(C(F)F)c1F [Example 36-16],222

# Same assay, conditions: PC-9 cells (EGFR Ex19Del), 1 hour incubation, AlphaLISA SureFire Ultra p-ERK1/2; read-out: SOS1 pERK IC50
row,IC50 [nM],Structure (SMILES)
1,494,"C[C@@H](Nc1ncnc2c1cc(C1CCS(=O)(=NC3CC3)CC1)c(=O)n2C)c1cccc(C(F)F)c1F (single isomer, unassigned) [Example 64-2]"
2,58.9,C[C@@H](Nc1ncnc2c1cc(C1(C#N)CCS(=O)(=O)C1)c(=O)n2C)c1cccc(C(F)F)c1F (stereo partly drawn) [Example 36-15]
3,448,C[C@@H](Nc1ncnc2c1cc(C1(C#N)CCP(C)(=O)CC1)c(=O)n2C)c1cccc(C(F)F)c1F (stereo partly drawn) [Example 36-12]
4,71.1,COC1(c2cc3c(N[C@H](C)c4cccc(C(F)F)c4F)ncnc3n(C)c2=O)CCCS(=O)(=O)CC1 (stereo partly drawn) [Example 32-34]
5,376,"C[C@@H](Nc1ncnc2c1cc(C13CCOCC1C3)c(=O)n2C)c1cccc(C(F)F)c1F (single isomer, unassigned) [Example 54-3]"
6,44.1,C[C@@H](Nc1ncnc2c1cc(C1(F)CCS(=O)(=NC3CC3)CC1)c(=O)n2C)c1cccc2c1OCC2(F)F (stereo partly drawn) [Example 56-5]
7,51.8,C[C@@H](Nc1ncnc2c1cc(C1(N)CCP(C)(=O)CC1)c(=O)n2C)c1cccc(C(F)F)c1F (stereo partly drawn) [Example 31-10]

row,Structure (SMILES),IC50 [nM]
1,C[C@@H](Nc1ncnc2c1cc(C1CCS(=O)(=O)C1)c(=O)n2C)c1cccc(C(F)F)c1F (stereo partly drawn) [Example 33-20],52.7
